Counter-ions that a name gives are not always drawn. Like-named read-outs stand apart in the source and are kept apart here.

The target of data set [1] is T1, human mu opioid receptor (MOR) (Homo sapiens, UniProt P35372).
T1 construct: expressed in transfected cells; host or cells: HEK-293T
The data set is described as follows: BRET assay measuring G protein activation, agonist activity at human MOR. It counts as cell-based. To be noted: for MOR potency relative to analogs lacking substitution at position 2: dihalo-substituted core. As for the experimental part: (§1) The diarylthiazepinamine carboxylic acids (9) were tested for agonist activity at the human mu opioid receptor (MOR) and delta opioid receptor (DOR) using bioluminescence resonance energy transfer (BRET) assays measuring G protein activation as previously described (Table 1) (Rives, M.-L. et al. 2012; Negri, A. et al. 2013).
Human MOR cDNA was transfected alongside GααB with RLuc8 inserted at position 91 (GααB—RLuc8), Gβ1 (β1), and Gγ2 fused to the full-length mVenus at its N terminus (mVenus-γ2) into HEK-293T cells (5×10^6 cells/plate) in 10-cm dishes using PEI (Polysciences Inc.; Warrington, PA) in a 1:1 ratio diluted in Opti-MEM (Life Technologies Corp.; Grand Island, NY) to assay for G protein activation as described previously (Rives, M.-L. et al. 2012; Negri, A. et al. 2013). Cells were maintained in Dulbecco's Modified Eagle Medium (high glucose #11965; Life Technologies) supplemented with 10% FBS (Premium Select, Atlanta Biologicals; Atlanta, GA) and 100 U/mL penicillin and 100 μg/mL streptomycin (#15140, Life Technologies). After 24 hours the media was changed, and the experiment was performed 24 hours later (48 hours after transfection).
(§2) Transfected cells were dissociated and re-suspended in phosphate-buffered saline (PBS). Approximately 200,000 cells/well were added to a black-framed, white well 96-well plate (#60050; Perkin Elmer; Waltham, MA). The microplate was centrifuged and the cells were re-suspended in PBS. Then 5 μM of the luciferase substrate coelenterazine H was added to each well for 5 minutes. Following coelenterazine H addition, ligands were added and the BRET signal was measured at 5 minutes on a PHERAstar FS plate reader. Quantification of the BRET signal required calculating the ratio of the light emitted by the energy acceptor, mVenus (510-540 nm), over the light emitted by the energy donor, RLuc8 (485 nm). […] Dose response curves were fit using a three-parameter logistics equation in GraphPad Prism 6.
The additional diarylthiazepinamine carboxylic acids (9i, 9j, 9k, and 91) were tested for agonist activity at the human mu opioid receptor (MOR) using bioluminescence resonance energy transfer (BRET) assays measuring G protein activation (Table 2) as previously described (Rives, M.-L. et al. 2012; Negri, A. et al. 2013; Example 2 of the present application).
(In general: Bioluminescence resonance energy transfer reports proximity on the nanometre scale.)

Data set [2] addresses T2, human delta opioid receptor (DOR) (Homo sapiens, UniProt P41143).
T2 construct: expressed in transfected cells
In words: BRET assay measuring G protein activation, agonist activity at human DOR. The data set is classed as cell-based. Here is the method: as §1, §2

A short description of data set [3]: physchem. To be noted: 25 °C, thermodynamic from solid. As for the experimental part: Test compounds (4 mg) were added to 200 μL of one of the tested aqueous solutions (hereinafter—buffer): 100 mM aqueous HCl (pH 1) or 100 mM Na-phosphate buffer (pH 7). The obtained suspensions/solutions with the theoretical concentration of 20 mg/mL were further allowed to equilibrate at 25° C. on a thermostatic orbital shaker for 24 hours and then centrifuged at 6000 rpm for 4 minutes and filtered through HTS filter plates using a vacuum manifold. In parallel, compound dilutions in 50% acetonitrile/HCl and 30% acetonitrile/Na-phosphate buffer mixes were prepared to theoretical concentrations of 0 mg/mL (blank), 0.1 mg/mL, 0.2 mg/mL, and 0.4 mg/mL in duplicates to generate calibration curves falling within the optimum UV absorption range. The filtrates of test compounds were diluted 100-fold with acetonitrile-buffer mixtures before measuring. The filtered supernatant test samples were transferred to 96-well plates and measured for absorbance in the 200-550 nm range with 5 nm step increment. The concentrations of compounds in supernatants were calculated using the measured absorbance and the previously determined calibration curve. Proper absorbance wavelengths for calculations were selected for each compound manually based on absorbance maxima (absolute absorbance unit values for the minimum and maximum concentration points within 0-2.5 OD range).

The nature of data set [4]: Solubility determination (Method A), neutral water. The data set is classed as physicochemical. To be noted: for solubility at 24 h: distilled water, thermodynamic from solid, neutral water, 20° C., Method A (24 h stirring), average of 2 independent trials, read-out: Aqueous Solubility (mg/mL @ 20° C.). As for the experimental part:
A quantity of the appropriate compound sufficient to saturate the resulting solution was added to distilled water (0.50 mL) and the mixture was stirred vigorously for 24 h at room temperature (20° C.). The mixture was then centrifuged for 3 min. at 21,000×g and the stir bar was carefully removed. The mixture was then centrifuged again for 5 min. at 21,000×g and the supernatant was carefully removed by syringe and passed through a […] syringe filter. An aliquot (300 μL) of the filtered supernatant was concentrated in vacuo and the mass of the residual solids determined in order to calculate the solubility.

Data set [5] has as its system male C57BL/6 mice. The data set is described as follows: Analgesic activity in hot plate assay. The note with it: for ED50: Mus musculus, sc, hot plate 55° C., male C57BL/6 mice, tested at 15 post-injection. It counts as in vivo, mouse. As for the experimental part:
Male C57BL/6 mice were timed for latency to jump on a hot-plate apparatus set to 55° C., using a 30 s cutoff to prevent tissue damage. Following a baseline test, animals were injected subcutaneously (s.c.) with escalating doses of drug and tested at […] (time of maximal effect). Dose-response curves were fit via nonlinear regression using GraphPad Prism (La Jolla, CA).

Setting [6] is: BRET G protein activation, HEK-293T cells, error ± SEM of 2 or more independent trials, read-out: Human MOR (EC50).
The mark [7] stands for this setting: BRET G protein activation, error ± SEM of 2 or more independent trials, read-out: Human DOR (EC50).

T2 sequence (P41143 whole entry): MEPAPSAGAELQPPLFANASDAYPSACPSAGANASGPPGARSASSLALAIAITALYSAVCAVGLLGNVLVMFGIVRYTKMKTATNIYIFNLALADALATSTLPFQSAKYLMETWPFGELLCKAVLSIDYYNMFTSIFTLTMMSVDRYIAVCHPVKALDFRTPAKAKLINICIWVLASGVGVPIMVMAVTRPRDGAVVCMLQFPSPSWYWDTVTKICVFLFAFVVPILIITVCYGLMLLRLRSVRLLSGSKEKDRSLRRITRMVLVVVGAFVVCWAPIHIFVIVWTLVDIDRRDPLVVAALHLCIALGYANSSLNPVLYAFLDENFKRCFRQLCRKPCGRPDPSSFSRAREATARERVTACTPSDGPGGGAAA
T1 sequence (P35372 whole entry): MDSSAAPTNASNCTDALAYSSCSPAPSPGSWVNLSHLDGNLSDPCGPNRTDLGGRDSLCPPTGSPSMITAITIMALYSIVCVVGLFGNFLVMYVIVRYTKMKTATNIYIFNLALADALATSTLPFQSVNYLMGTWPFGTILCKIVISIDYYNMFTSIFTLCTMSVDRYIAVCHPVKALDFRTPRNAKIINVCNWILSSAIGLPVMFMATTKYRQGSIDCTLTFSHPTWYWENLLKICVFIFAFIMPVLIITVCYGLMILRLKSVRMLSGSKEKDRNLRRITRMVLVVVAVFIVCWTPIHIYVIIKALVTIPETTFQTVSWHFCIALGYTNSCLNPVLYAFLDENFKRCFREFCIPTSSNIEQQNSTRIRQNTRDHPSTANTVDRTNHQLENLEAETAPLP

Regarding `Cc1ccc2c(c1)S(=O)(=O)N(C)c1ccccc1C2NCCCCCCC(=O)O` (stereo not shown) [3-Methyl-substituted Analog, reference compound], the EC50 was 890 nM in data set [1] and over 10000 nM in data set [2].

With `CCOC(=O)CCCCCCNC1c2ccccc2N(C)S(=O)(=O)c2cc(SC)ccc21` (stereo not shown) [Compound 8c, Ethyl 7-((6-methyl-3-(methylthio)-5,5-dioxido-6,11-dihydrodibenzo[c,f][1,2]thiazepin-11-yl)amino)heptanoate], the EC50 in data set [1] (setting [6]) is 222 nM. Besides, in data set [2] (BRET G protein activation), the Emax worked out at 70% and the “Human DOR agonist type (partial / full agonist)” value is listed as “partial agonist”. Moreover, the EC50 in data set [2] (setting [7]) came to 7000 nM.

As to `C#Cc1ccc2c(c1)S(=O)(=O)N(C)c1ccccc1C2NCCCCCCC(=O)O` (stereo not shown) [Compound 9a, 7-((3-Ethynyl-6-methyl-5,5-dioxido-6,11-dihydrodibenzo [c,f][1,2]thiazepin-11-yl)amino)heptanoic acid], the EC50 in data set [1] (setting [6]) turned out to be 53.3 ± 18 nM; in data set [2] (setting [7]) it was 5900 ± 300 nM.

As to `CN1c2ccccc2C(NCCCCCCC(=O)O)c2cc(F)c(Br)cc2S1(=O)=O` (stereo not shown) [Compound 9b, 7-((3-Bromo-2-fluoro-6-methyl-5,5-dioxido-6,1-dihydrodibenzo [c,f][1,2]thiazepin-11-yl)amino) heptanoic acid hydrochloride salt], the solubility in data set [3] (pH 1, simulated gastric fluid) was 1100 µg/mL; in data set [3] (pH 7, aqueous buffer), 840 µg/mL. The EC50 in data set [1] stood at 83.1 ± 5.7 nM; in data set [2], 11500 ± 2200 nM. In addition, in data set [1], the “MOR potency relative to analogs lacking substitution at position 2” value is recorded as “equipotent or more potent”. For the same molecule, the solubility at 24 h in data set [4] stood at 9.8 mg/mL. The “Solubility relative to monohalo counterpart bromotianeptine” value in data set [4] (neutral unbuffered water) is 2-3 fold. The 50% effect level in data set [5] (ED50) was put at a dose of 5.1 mg/kg. The “Analgesic activity in the mouse hot plate assay” value in data set [5] (much higher potency than tianeptine) is “potent analgesics”.

For the molecule `CSc1ccc2c(c1)S(=O)(=O)N(C)c1ccccc1C2NCCCCCCC(=O)O` (stereo not shown) [Compound 9c, 7-((6-Methyl-3-(methylthio)-5,5-dioxido-6,1l-dihydrodibenzo [c,f][1,2]thiazepin-11-yl)amino)heptanoic acid], in data set [1] (setting [6]), the EC50 worked out at 41.8 nM. In data set [2] (BRET G protein activation), the Emax was 51%, the “Human DOR Emax” value came out at 51% and the “Human DOR agonist type (partial / full agonist)” value is given as “partial agonist”. The EC50 in data set [2] (setting [7]) was determined as 2060 nM. Also, the “DOR Emax relative to the control agonist DPDPE” value in data set [2] (FIG. 1) was “lesser Emax than the control agonist DPDPE”.

For `CN1c2ccccc2C(NCCCCCCCC(=O)O)c2ccc(Br)cc2S1(=O)=O` (stereo not shown) [Compound 9d, 8-((3-Bromo-6-methyl-5,5-dioxido-6,11-dihydrodibenzo [c,f][1,2]thiazepin-11-yl)amino) octanoic acid hydrochloride salt], the EC50 amounted to 56 ± 24 nM in data set [1] and 1700 ± 40 nM in data set [2].

`CN1c2ccccc2C(NCCCCCCCCC(=O)O)c2ccc(I)cc2S1(=O)=O` (stereo not shown) [Compound 9f, 9-((3-Iodo-6-methyl-5,5-dioxido-6,11-dihydrodibenzo [c,f][1,2]thiazepin-11-yl)amino) nonanoic acid hydrochloride salt]: the EC50 in data set [1] amounted to 22 ± 14 nM; in data set [2], 530 ± 340 nM.

On to `CN1c2ccccc2C(NCCCCCCCCCCC(=O)O)c2ccc(I)cc2S1(=O)=O` (stereo not shown) [Compound 9h, 11-((3-Iodo-6-methyl-5,5-dioxido-6,11-dihydrodibenzo [c,f][1,2]thiazepin-11-yl)amino)undecanoic acid hydrochloride salt], for which the results for the EC50 in data set [1] and in data set [2] were 110 ± 29 nM and 700 ± 305 nM, respectively.

In the case of `CN1c2ccccc2C(NCCCCCCC(=O)O)c2cc(Cl)c(Cl)cc2S1(=O)=O.Cl` (stereo not shown) [Compound 9i, 7-((2,3-dichloro-6-methyl-5,5-dioxido-6,11-dihydrodibenzo [c,f][1,2]thiazepin-11-yl)amino)heptanoic acid hydrochloride salt], in data set [1], the EC50 came out at 172 nM and the “MOR potency relative to analogs lacking substitution at position 2” value is reported as “equipotent or more potent”.

As to `CN1c2ccccc2C(NCCCCCCC(=O)O)c2cc(F)c(Cl)cc2S1(=O)=O.Cl` (stereo not shown) [Compound 9j, 7-((3-chloro-2-fluoro-6-methyl-5,5-dioxido-6,11-dihydrodibenzo [c,f][1,2]thiazepin-11-yl)amino)heptanoic acid hydrochloride salt], the solubility was 5300 µg/mL in data set [3] (pH 1, simulated gastric fluid) and 70 µg/mL in data set [3] (pH 7, aqueous buffer). The same molecule registered an EC50 in data set [1] of 129 nM. Moreover, the “MOR potency relative to analogs lacking substitution at position 2” value in data set [1] is recorded as “equipotent or more potent”.

Take `CN1c2ccccc2C(NCCCCC(=O)O)c2cc(F)c(Br)cc2S1(=O)=O.Cl` (stereo not shown) [Compound 9l, 5-((3-bromo-2-fluoro-6-methyl-5,5-dioxido-6,11-dihydrodibenzo [c,f][1,2]thiazepin-11-yl)amino)pentanoic acid hydrochloride salt]: in data set [1], the EC50 is 45 nM and the “MOR potency relative to analogs lacking substitution at position 2” value was “equipotent or more potent”.

In data set [1], `CCOC(=O)CCCCCCNC1c2ccccc2N(C)S(=O)(=O)c2ccc(Cl)cc21` (stereo not shown) [Compound 15a, reference compound] had an EC50 of 4150 ± 930 nM.

With `CCOC(=O)CCCCCCNC1c2ccccc2N(C)S(=O)(=O)c2ccccc21` (stereo not shown) [Compound 15c, reference compound], in data set [1], a half-maximal response (EC50) required 156 ± 84.7 nM.

On to `COCCCNC1c2ccccc2N(C)S(=O)(=O)c2ccc(Cl)cc21` (stereo not shown) [Compound 16a, reference compound], for which the EC50 in data set [1] (setting [6]) came to 16900 ± 5220 nM.

On to `COCCCNC1c2ccccc2N(C)S(=O)(=O)c2cc(Cl)ccc21` (stereo not shown) [Compound 16b, reference compound], for which the EC50 in data set [1] (setting [6]) was found to be 264 ± 85.3 nM.

On to `COCCCNC1c2ccccc2N(C)S(=O)(=O)c2ccccc21` (stereo not shown) [Compound 16c, reference compound], for which the EC50 in data set [1] (setting [6]) came out at 2010 ± 700 nM.

For the molecule `CN1c2ccccc2C(NCCCCCCC(=O)[O-])c2ccc(Cl)cc2S1(=O)=O.[Na+]` (stereo not shown) [Tianeptine (Na salt), Tianeptine, reference compound], the median effective dose (ED50) in data set [5] turned out to be 15 mg/kg.

On to `CN1c2ccccc2C(NCCCCCCC(=O)O)c2ccc(Br)cc2S1(=O)=O.Cl` (stereo not shown) [bromotianeptine, reference compound], for which the solubility in data set [3] (pH 1, simulated gastric fluid) is under 100 µg/mL; in data set [3] (pH 7, aqueous buffer) it was 620 µg/mL. For the same molecule, the solubility at 24 h in data set [4] is 4.5 mg/mL.

Broadly, the EC50 is the concentration at which the effect is half-maximal. Broadly, the Emax is the greatest response seen or fitted, relative to the assay's reference. One may read the ED50 as the dose at which the effect has come halfway, by size or by number of responders. Read a low ED50 as greater potency.

(Values after US11787772B2, “Carboxylic diarythiazepineamines as mixed mu- and delta-opioid receptor agonists” (THE TRUSTEES OF COLUMBIA UNIVERSITY IN THE CITY OF NEW YORK, priority 2017, dated 2023).)
